# In patent publication EP4772500A1, “NOVEL ISOXAZOLE COMPOUND AS TM4SF5-SPECIFIC INHIBITOR AND USE THEREOF” (Seoul National University R&DB Foundation, priority 2023, dated 2025):
# Legend:
# [1] = molecular target: T1, PD-L1 (Homo sapiens, UniProt Q9NZQ7); test: Cholesterol binding to PD-L1; conditions: summary statement, cholesterol binding to TM4SF5 and PD-L1
# T1 construct: expressed in transfected cells; host or cells: Huh7 cells, transfected; captured on streptavidin agarose
# Experimental: (a) Expression vectors for a control vector, TM4SF1, TM4SF5 WT, and R113Q, C118/145A, H127A, and N138A mutants of TM4SF5 were injected into the HEK293FT cell line, which was confirmed not to express TM4SF5, and allowed to express for 48 hours. (b) Huh7KO cell lines, in which TM4SF5 was knocked out in Huh7, were stably infected with a retrovirus encoding pBabe-EV or pBabe-TM4SF5-HA. […] (d) Strep-EV, Strep-PD-L1 WT, and 3NQ (N192/200/219Q) and 4NQ (N35/192/200/219Q) N-glycosylation mutants were injected into Huh7 cells to be expressed. (e) Strep-EV and Strep-TM4SF5 expression vectors were injected into Huh7KO cells and allowed to express for 48 hours. (a-e) After obtaining cell extracts, TM4SF5-strep, TM4SF5-HA, or PD-L1-strep was pulled down with streptavidin agarose resin or anti-HA antibody from extracts containing 0.2, 0.25, or 1.0 mg of protein for each experimental condition. […] Alternatively, they were treated with 1,2-^3H-Cholesterol (50 µM) alone or together with ST-3-001 (negative control compound), ST-5-001, or ST-5-002 (2.5 µM each) for 1 hour (c-e). For the experimental samples of each condition, radioactive isotope values were repeatedly measured using a TriCarb scintillation counter (PerkinElmer, Waltham, MA).
# [2] = test system: SNU761-TM4SF5; test: Western blotting of SLAMF7 expression, TM4SF5-expressing SNU761 cells; type: cell-based, human; conditions: for expression level of SLAMF7 (WCL): whole-cell lysates, 24 hours (FIG. 15e-f)
# Experimental: Cell extracts were obtained from cells grown to a density of 70-80% without any treatment, or from cells treated with vehicle DMSO or drugs at the given concentrations for 24 hours. For the extract of hepatocytes or liver cancer cells, a lysis buffer (150 mM NaCl, 1% NP-40, 50 mM Tris-HCl, 0.25% sodium deoxycholate, pH 7.4) including a protease inhibitor cocktail (GenDEPOT) was used. In addition, after washing animal liver tissue twice with PBS, SDS, Na3VO4, and protease inhibitor cocktails (GenDEPOT) were added to a lysis buffer [50 mM Tris-HCl, pH 7.4, 1% NP40, 0.25% sodium deoxycholate, 150 mM NaCl, 1 mM EDTA (based on 500 ml)], followed by treatment at 4°C for 15 minutes. After centrifugation at 13,000 rpm at 4°C for 30 minutes, only the supernatant was transferred to a new microcentrifuge tube. After quantification using BCA reagent (Thermo Scientific), a 4 × sample buffer [100% glycerol 4 ml, Tris-HCl, pH 6.8, 2.4 ml, SDS 0.8 g, Bromophenol blue 4 mg, betamercaptoethanol 0.4 ml, H2O 3.1 ml (based on 10 ml)] was added, followed by boiling at 100°C for 5 minutes. After performing SDS-PAGE electrophoresis with the above samples and transferring them to Nitrocellulose Membranes Protran™ nitrocellulose membranes (Whatman), pre-treatment was performed with 5% skim milk for 1 hour. After pre-treatment, primary antibodies of p-FAK(Y861) (SC-16663), p-FAK(Y577) (SC-16665), c-Src (SC-8056), STAT3 (SC-8019), p-AKT 1/2/3(S473) (SC-7985), STATS (SC-835), Laminin γ2 (SC-393225), COL1A1 (SC-28657), CCL5(RANTES) (SC-514019) CCL20(MIP-3α) (SC-517441), SIRT1 (SC-74465), ChREBP (SC-515922), SREBP1 (SC-366513), DGAT1 (SC-271934), DGAT2 (SC-293211), MICA/B (SC-137242), SLAMF7 (SC-390840), α-tublin (SC-5286), β-actin (SC-47778), FUCA (SC-365496) (the above from Santa Cruz Biotech, USA), p-FAK(Y397) (cat # 611723), FAK (cat # 610088), p27 (cat # 610242) (the above from BD Transduction, USA), p-FAK(Y925) (#3284) p-c-Src(Y416) (#2101), p-STAT3(Y705) (#9145), p70S6K1 (#9202), p-p70S6K1(T389) (#9205), p-STAT5(Y694) (#9314), ACC (#3676), FASN (#3189), CPT1A (#12252), p-ACC(S79) (#11818), HA (#3724), PD-L1 (#13684), PD-1 (#86163), p-ERK1/2(T202/Y204) (#9101s), ERK1/2 (#9102s) (the above from Cell Signaling Tech., USA), pS10p27(S10) (ab62364), human SLAMF6 (ab224201), TIGIT (ab233404), CD34 (ab81289) (the above from Abcam, UK), mouse SLAMF6 (PA5-87823), NKG2D (PA5-102038) (the above from Thermofisher, USA), α-SMA (Sigma Aldrich, A5228), CCL2 (Invitrogen, MA5-17040), and CD155(PVR) (Biolegend, 337601), HA (Biolegend, USA), Strep-HRP(horse-radish peroxidase), StrepMAB-HRP (IBA, USA), AFP (FineTest, FNab00203) were reacted at 4°C for 15 hours. The next day, secondary antibodies were reacted, and development was performed on X-ray film using ECL (Pierce, USA). […]
# After 24 hours, vehicle DMSO, drug ST-1-025, or ST-5-002 was treated at the given concentrations. […] (f) After treating NK92-EV or NK92-TM4SF5 cells with DMSO or drugs ST-2-001 (1 nM), ST-3-005 (10 nM or 1 µM), ST-5-001, or ST-5-002 (100 nM or 1 µM) for 24 hours, the expression of SLAMF7 expressed on the cell surface was analyzed through immunostaining using flow cytometry. The expression level of SLAMF7 was confirmed by adding a SLAMF7 antibody to bind with SLAMF7 and then measuring the fluorescence linked to the SLAMF7 antibody using flow cytometry. […]
# T1 sequence (Q9NZQ7 19-290): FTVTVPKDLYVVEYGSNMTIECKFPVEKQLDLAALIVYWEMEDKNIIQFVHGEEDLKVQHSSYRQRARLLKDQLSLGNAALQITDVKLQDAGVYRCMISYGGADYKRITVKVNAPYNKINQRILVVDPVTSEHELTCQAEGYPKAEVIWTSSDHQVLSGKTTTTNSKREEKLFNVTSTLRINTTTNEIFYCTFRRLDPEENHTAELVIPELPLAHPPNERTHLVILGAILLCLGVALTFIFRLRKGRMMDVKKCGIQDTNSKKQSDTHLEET
binding of cholesterol to PD-L1 [1],Compound,SLAMF7 expression level ([2]; SNU761-TM4SF5 (FIG. 13d)),"SLAMF7 expression decreased due to TM4SF5 ([2]; SNU761 with FLAG-SLAMF7 and HA-TM4SF5, given concentrations, 24 hours (FIG. 15d))",expression level of SLAMF7 (WCL) [2]
inhibit,"Cc1ccc(C(=O)Nc2ccc(-c3cc(-c4ccc(O)cc4)no3)cc2)cc1 [ST-5-002, N-(4-(3-(4-hydroxyphenyl)isoxazole-5-yl)phenyl)-4-methylbenzamide]",less lowered or remained high,showed a pattern of recovery,increasing again
,"COc1cccc(-c2cc(-c3ccc(NC(C)=O)cc3)no2)c1 [ST-3-001, N-(4-(5-(3-methoxyphenyl)isoxazole-3-yl)phenyl)acetamide]",,,did not show a recovery
inhibit,"CC(=O)Nc1ccc(-c2cc(-c3ccc(O)cc3)no2)cc1 [ST-5-001, N-(4-(3-(4-hydroxyphenyl)isoxazole-5-yl)phenyl)acetamide]",,,
